Test results taken from patent US20250312411A1, “Treatment of Multi-Drug-Resistant Cancers Using Nanoparticulate Drug Delivery Vehicles” (priority 2024, published 2025).

How the values were obtained:
Format in all cases: cell-based
[1] = system: tunneling nanotubes (TNTs) in 50:50 DS/MDR MDA-MB-231 cells; test: Number of TNTs/cm^2 counted in 50:50 DS/MDR co-culture after treatment; settings: 50:50 DS/MDR ratio of MDA-MB-231 cells, n=25, FIG. 4C
DS TNBC cells = test: Wound healing assay (cell migration), drug sensitive cells; settings: AS-LNP at 10 PM and 30 PM, n=10, FIG. 6A
Text: (§1) SNARE proteins mediate EV release but also mediate the fusion of TNTs with recipient cells.

MDR TNBC cells = test: Wound healing assay (cell migration), MDR cells; settings: AS-LNP at 10 PM and 30 PM, n=10, FIG. 6B
Text: as §1

| SMILES | number of TNTs/cm^2 [1] | cell migration in wound healing assay (DS TNBC cells) | cell migration in wound healing assay (MDR TNBC cells) |
| --- | --- | --- | --- |
| CN(C)C(=N)N=C(N)N [metformin] | more effective in reducing the number of TNTs |  |  |
| C/C1=C\[C@@H](C)C/C=C/[C@H]2[C@@H]3O[C@]3(C)[C@@H](C)[C@H]3[C@H](Cc4c[nH]c5ccccc45)NC(=O)[C@]32C(=O)/C=C/C(=O)[C@@H]1O [CA, chaetoglobosin A] | significantly reduced the number of TNTs |  |  |
| O=C(/C=C/c1ccc(/C=C/C(=O)Nc2ccc(C3=NCCN3)cc2)cc1)Nc1ccc(C2=NCCN2)cc1 [GW4869] |  | did not decrease cell migration | did not decrease cell migration |
